According to patent publication US20050049224A1, “Antimicrobial mixtures comprising iodopropynyl compounds and dimethyldithiocarbamate derivatives” (priority 2003, published 2005):

Assays:
[1] = tested on: Aspergillus niger (ATCC 6275); assay: Minimum Inhibitory Concentration (MIC) by spiral gradient endpoint plating, with Kull synergistic index; format: cell-based
Description: Spores were removed from the Aspergillus niger slant by adding a small amount of phosphate buffer pH 7.0 (Thomas Scientific phosphate buffer & magnesium chloride, Lot # 023-0703) and scraping with a sterile nichrome wire loop. This process was repeated twice. Loosened spores were removed from the slant by aseptically pouring them into a sterile bottle containing 30 ml. of phosphate buffer and a volume of roughly 40 ml. of 6-mm, borosilicate glass beads. The bead bottle was shaken to disperse the spores and additional buffer was added to a final volume of 50 ml. Spore density was adjusted in distilled water blanks to that of a 0.5. McFarland nephelometer standard.
With the aid of the SGE Software the proper aqueous dilutions of each biocide or test blend were prepared and adjusted to a final volume of 10 ml. Then, 250 micro-liters of each biocide mixture was processed by the spiral plater.
The Autoplate 4000 mechanically applied mixtures of test fungicides to 150 MM malt agar plates using an exponential application gradient. Gradients of applied fungicides were allowed to completely diffuse into the surface of the agar (1 to 4 hours at room temperature 23° C.) before inoculating the plates with fungi. […]
Following incubation, visible growth of the test organism was observed on a portion of the radial streak and ended where the concentration of biocide was high enough to prevent growth. This growth endpoint was used by the SGE software to compute the exact MIC expressed as parts per million (PPM) of active fungicide. […]
Elisman, H. D. Sylwestrowicz and P. K. Mayer, in Applied Microbiology, 9:538 (1961) where: • Qa=the quantity of A used in a binary mixture that gives the desired effect. • QA=the quantity of A which when used alone gives the desired effect. • Qb=the quantity of B used in a binary mixture that gives the desired effect. • QB=the quantity of B which when used alone gives the desired effect.
The synergistic index (SI) for each mixture was determined by the equation SI=Qa/QA+Qb/QB.

Aspergillus niger = assay: Fungal growth on acrylic/vinyl acrylic white house paint film on filter paper; format: cell-based; details: 0.06% actives in paint, four weeks 28° C., scale 1 (no growth touching square) to 15 (totally covered), average of at least 3 runs
Description: In this example an acrylic, vinyl acrylic white house paint was used as the test medium.
Test formulations of the actives were prepared for each of the biocide blends to be tested (see tables 2b and 2c) by weighing the appropriate amounts of actives and adding them to the test paint so that in each test formulation the weight of the actives was 20% of the sample and 80% of the sample was paint. Each mixture was then stirred to achieve a homogeneous mixture. These test formulations were then incorporated into the test paint at the rate of 0.3% w/w, i.e. the final level of actives in the paint was 0.06%.
The test paints were then applied to a filter paper using a standard 3-mil drawdown bar to insure uniformity of the film. Samples were then dried at room temperature, and placed on agar contained in a Petri dish. The filter papers were then inoculated with a test inoculum of Aspergillus niger. Inoculated filter papers containing the test paints were placed in a constant temperature (28° C.) fungal incubator for four weeks. At the end of the incubation, fungal growth on each test paint was measured and recorded.
Each test blend was run at least 3 times and each result represents the average of the runs.

[2] = tested on: Streptoverticillium reticulans ATCC 25607 (pink stain organism); assay: ASTM E 1428-91 pink stain test of flexible PVC film; details: Table 3d, IPBC/Thiram in PVC film, 1000 ppm total; two weeks 28° C.; 0 no stain, 1 trace <10%, 2 slight 10-30%, 3 moderate 30-50%, 4 heavy >50% coverage; average of triplicate
Description: In this example a PVC formulation for flexible vinyl film was used as the test medium.
Five blends were prepared by adding the appropriate amount of the biocide to separate vinyl film form formulations prepared according to Table 3a.
Difco malt agar was prepared using manufacturers directions. Sterilized agar (30 ML) was poured into sterile plastic 100 mm Petri dishes to provide a solidified agar layer sufficient to nourish the test organism for the duration of the test.
Following inoculation of the agar, a sterile forceps was used to place the test specimen, previously sterilized by a brief dip in boiling water, on the agar. Each test blend was run in triplicate and the result represents the average of the three. The specimen was gently pressed on the surface of the agar to insure good contact. The Petri dishes were covered and incubated for two weeks in a 28° C. incubator.
Following incubation, samples were lifted from the surface of the agar and both sides were examined against a white background for presence of pink staining.
Degree of staining reported was determined by the area of the sample stained rather than by intensity of the color. […]

SMILES | QA (quantity of A which when used alone gives the desired effect) ([1]; MIC of IPBC alone (Table 1a)) [ppm] | QA (quantity of A which when used alone gives the desired effect) ([1]; MIC of IPBC alone (Table 1b)) [ppm] | Fungal Growth (Aspergillus niger; Table 2b, IPBC/Ziram) [fungus units] | Fungal Growth (Aspergillus niger; Table 2c, IPBC/Thiram) [fungus units] | QB (quantity of B which when used alone gives the desired effect) ([1]; MIC of Thiram alone (Table 1b)) [ppm] | Pink Stain Rating [2]
CCCCNC(=O)OCC#CI [IPBC, 3-iodo-2-propynyl butyl carbamate] | 1.08 | 1.08 | 7.8 | 2.8 | – | –
CN(C)C(=S)SSC(=S)N(C)C [Thiram, bis(dimethylthiocarbamoyl) disulfide] | – | – | – | 13.8 | 26.73 | 2.0
